Results reported in patent publication US20250092039A1, “GLUTARIMIDE-CONTAINING PAN-KRAS-MUTANT DEGRADER COMPOUNDS AND USES THEREOF” (Tiger Biotherapeutics Inc., priority 2022, published 2025).

What was measured:
KRAS-G12V/RAF1 = KRAS-G12V/RAF1 (Homo sapiens (Human), UniProt P01116, G12V); assay: KRAS/RAF1 binding inhibition assay (AlphaScreen)
Procedure: Binding affinity against GTP-bound KRAS of the compounds disclosed herein was measured by monitoring the interaction of guanosine 5′-[β,γ-imido]triphosphate-bound (GppNHp-bound) KRAS with the RBD domain of RAF1 in the presence of the test compound. […] The test compounds in 2% DMSO (final concentration) at various concentrations were then added to the reaction mixture and incubated for 60 minutes at 4° C.
Raw ALphaScreen data were converted to a percentage of inhibition (relative to DMSO) using the following equations: • a) For a given test compound concentration X: […]
The IC50 values were determined by nonlinear regression of plots of [inhibitor] vs. percentage of inhibition with variable slope, analyzed using GraphPad Prism (Version 9).

KRAS G12V = KRAS G12V (Homo sapiens (Human), UniProt P01116, G12V); assay: KRAS G12V degradation in SW620 cells (Western blot, DC50); assay type: cell-based; settings: 24 hours
Sequence of KRAS G12V (P01116-2 other isoform, or with tags, fused parts or gaps G12V): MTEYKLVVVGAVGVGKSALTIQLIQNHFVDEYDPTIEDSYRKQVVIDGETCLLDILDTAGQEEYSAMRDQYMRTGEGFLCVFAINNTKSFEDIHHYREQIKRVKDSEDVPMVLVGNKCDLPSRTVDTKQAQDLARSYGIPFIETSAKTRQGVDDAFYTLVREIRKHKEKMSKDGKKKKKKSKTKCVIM
Procedure: SW620 (KRAS G12V homozygous), AsPC1 (KRAS G12D homozygous), MIA PaCa2 (KRAS G12C homozygous), A549 (KRAS G12S homozygous) and MCF7 (KRAS WT) cells were obtained from American Type Culture Collection (ATCC). […] The following day, the test compound was administered to the cells by using 1000× compound stock solution prepared in DMSO at various concentrations. After administration of the compound, the cells were then incubated at 37° C. for 24 hours. Upon completion, the cells were washed with PBS and protein was collected in Laemmli sample buffer (1×; VWR International). Proteins in cell lysate were separated by SDS-PAGE and transferred to Odyssey nitrocellulose membranes (Licor) with iblot® dry blotting transfer system (ThermoFisher). Nonspecific binding was blocked by incubating membranes with Intercept Blocking Buffer (Licor) for 1 hour at room temperature with gentle shaking. […] After washing 3 times with TBS-T, the membranes were incubated with IRDye® 800CW goat anti-rabbit IgG (1:20,000, Licor) and IRDye® 680RD goat anti-mouse IgG (1:20,000, Licor) for 1 hour. After TBS-T washes, membranes were rinsed in TBS and Western blot images were acquired by Odyssey CLx (LI-COR Biosciences).
The signal intensity of target proteins was calculated using ImageStudio software. KRAS fluorescent intensity (FLU) from DMSO (vehicle) treatment was set as 100%. Relative KRAS expression level was determined by the following formula: […]
The percentage of KRAS expression was calculated using Microsoft Excel. The half-maximal degradation concentration (DCso) values were generated by GraphPad Prism (Version 9) using the dose-response equation of variable slope (four parameters).

Sequence of KRAS-G12V/RAF1 (P01116-2 other isoform, or with tags, fused parts or gaps G12V): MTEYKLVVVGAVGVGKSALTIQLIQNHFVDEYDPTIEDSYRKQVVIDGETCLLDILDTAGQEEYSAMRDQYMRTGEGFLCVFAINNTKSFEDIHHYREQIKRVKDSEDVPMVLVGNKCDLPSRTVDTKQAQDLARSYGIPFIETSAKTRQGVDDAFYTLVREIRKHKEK

| SMILES | IC50 (KRAS-G12V/RAF1) [µM] | DC50 (KRAS G12V) [µM] |
| --- | --- | --- |
| CCc1c(F)ccc2cc(O)cc(-c3ncc4c(N5CCC[C@]6(C5)C[C@H](O)C6)nc(OCC5(CN6CCC7(CC6)CC(CN6CCN(c8ccc9c(c8)CN([C@H]8CCC(=O)NC8=O)C9=O)CC6)C7)CC5)nc4c3F)c12 [Compound 99, (S)-3-(5-(4-((7-((1-(((7-(8-ethyl-7-fluoro-3-hydroxynaphthalen-1-yl)-8-fluoro-4-((2s,4r)-2-hydroxy-6-azaspiro[3.5]nonan-6-yl)pyrido[4,3-d]pyrimidin-2-yl)oxy)methyl)cyclopropyl)methyl)-7-azaspiro[3.5]nonan-2-yl)methyl)piperazin-1-yl)-1-oxoisoindolin-2-yl)piperidine-2,6-dione] | 0.02 to 0.2 | > 0.1 |
| CCc1c(F)ccc2cc(O)cc(-c3ncc4c(N5CCC[C@]6(C5)C[C@@H](O)C6)nc(OCC5(CN6CCC7(CC6)CC(CN6CCN(c8ccc9c(c8)CN([C@H]8CCC(=O)NC8=O)C9=O)CC6)C7)CC5)nc4c3F)c12 [Compound 100, (S)-3-(5-(4-((7-((1-(((7-(8-ethyl-7-fluoro-3-hydroxynaphthalen-1-yl)-8-fluoro-4-((2r,4s)-2-hydroxy-6-azaspiro[3.5]nonan-6-yl)pyrido[4,3-d]pyrimidin-2-yl)oxy)methyl)cyclopropyl)methyl)-7-azaspiro[3.5]nonan-2-yl)methyl)piperazin-1-yl)-1-oxoisoindolin-2-yl)piperidine-2,6-dione] | 0.02 to 0.2 | > 0.1 |
| C[C@@]1(O)CCCN(c2nc(OCC3(CN4CCC(CN5CCN(c6ccc7c(c6)CN([C@H]6CCC(=O)NC6=O)C7=O)CC5)CC4)CC3)nc3c(F)c(-c4cc(O)cc5ccc(F)c(F)c45)ncc23)C1 [Compound 111, (S)-3-(5-(4-((1-((1-(((7-(7,8-difluoro-3-hydroxynaphthalen-1-yl)-8-fluoro-4-((R)-3-hydroxy-3-methylpiperidin-1-yl)pyrido[4,3-d]pyrimidin-2-yl)oxy)methyl)cyclopropyl)methyl)piperidin-4-yl)methyl)piperazin-1-yl)-1-oxoisoindolin-2-yl)piperidine-2,6-dione] | 0.02 to 0.2 | 0.001 to 0.01 |
| CCc1c(F)ccc2cc(O)cc(-c3ncc4c(N5CCOC[C@](C)(O)C5)nc(OCC5(CN6CCC(CN7CCN(c8ccc9c(c8)CN([C@H]8CCC(=O)NC8=O)C9=O)CC7)CC6)CC5)nc4c3F)c12 [Compound 112, (S)-3-(5-(4-((1-((1-(((7-(8-ethyl-7-fluoro-3-hydroxynaphthalen-1-yl)-8-fluoro-4-((R)-6-hydroxy-6-methyl-1,4-oxazepan-4-yl)pyrido[4,3-d]pyrimidin-2-yl)oxy)methyl)cyclopropyl)methyl)piperidin-4-yl)methyl)piperazin-1-yl)-1-oxoisoindolin-2-yl)piperidine-2,6-dione] | > 0.2 | > 0.1 |
| CCc1c(F)ccc2cc(O)cc(-c3ncc4c(N5CCOC[C@](C)(O)C5)nc(OCC5(CN6CCC7(CC6)CC(CN6CCN(c8ccc9c(c8)CN([C@H]8CCC(=O)NC8=O)C9=O)CC6)C7)CC5)nc4c3F)c12 [Compound 113, (S)-3-(5-(4-((7-((1-(((7-(8-ethyl-7-fluoro-3-hydroxynaphthalen-1-yl)-8-fluoro-4-((R)-6-hydroxy-6-methyl-1,4-oxazepan-4-yl)pyrido[4,3-d]pyrimidin-2-yl)oxy)methyl)cyclopropyl)methyl)-7-azaspiro[3.5]nonan-2-yl)methyl)piperazin-1-yl)-1-oxoisoindolin-2-yl)piperidine-2,6-dione] | > 0.2 | > 0.1 |
| CCc1c(F)ccc2cc(O)cc(-c3ncc4c(N5CCCOC6CC65)nc(OCC5(CN6CCC(CN7CCN(c8ccc9c(c8)CN([C@H]8CCC(=O)NC8=O)C9=O)CC7)CC6)CC5)nc4c3F)c12 (stereo partly drawn) [Compound 160, (3S)-3-(5-(4-((1-((1-(((4-(2-oxa-6-azabicyclo[5.1.0]octan-6-yl)-7-(8-ethyl-7-fluoro-3-hydroxynaphthalen-1-yl)-8-fluoropyrido[4,3-d]pyrimidin-2-yl)oxy)methyl)cyclopropyl)methyl)piperidin-4-yl)methyl)piperazin-1-yl)-1-oxoisoindolin-2-yl)piperidine-2,6-dione] | 0.02 to 0.2 | > 0.1 |

The next lines start with the values.

| IC50 (KRAS-G12V/RAF1) [µM] | DC50 (KRAS G12V) [µM] | SMILES |
| --- | --- | --- |
| > 0.2 | < 0.001 | CCc1cccc2cc(O)cc(-c3ncc4c(N5C[C@@H]6C[C@H](C5)[C@H](O)C6)nc(OCC5(CN6CCC7(CC6)CC(CN6CCN(c8ccc9c(c8)CN([C@H]8CCC(=O)NC8=O)C9=O)CC6)C7)CC5)nc4c3F)c12 [Compound 101, (S)-3-(5-(4-((7-((1-(((7-(8-ethyl-3-hydroxynaphthalen-1-yl)-8-fluoro-4-((1R,5R,6R)-6-hydroxy-3-azabicyclo[3.2.1]octan-3-yl)pyrido[4,3-d]pyrimidin-2-yl)oxy)methyl)cyclopropyl)methyl)-7-azaspiro[3.5]nonan-2-yl)methyl)piperazin-1-yl)-1-oxoisoindolin-2-yl)piperidine-2,6-dione] |
| > 0.2 | < 0.001 | CCc1cccc2cc(O)cc(-c3ncc4c(N5CCCn6nc(C(=O)N(C)C)c(Cl)c6C5)nc(OCC5(CN6CCC7(CC6)CC(CN6CCN(c8ccc9c(c8)CN([C@H]8CCC(=O)NC8=O)C9=O)CC6)C7)CC5)nc4c3F)c12 [Compound 102, (S)-3-chloro-5-(2-((1-((2-((4-(2-(2,6-dioxopiperidin-3-yl)-1-oxoisoindolin-5-yl)piperazin-1-yl)methyl)-7-azaspiro[3.5]nonan-7-yl)methyl)cyclopropyl)methoxy)-7-(8-ethyl-3-hydroxynaphthalen-1-yl)-8-fluoropyrido[4,3-d]pyrimidin-4-yl)-N,N-dimethyl-5,6,7,8-tetrahydro-4H-pyrazolo[1,5-a][1,4]diazepine-2-carboxamide] |
| 0.02 to 0.2 | < 0.001 | C[C@@]1(O)CCCN(c2nc(OCC3(CN4CCC5(CC4)CC(CN4CCN(c6ccc7c(c6)CN([C@H]6CCC(=O)NC6=O)C7=O)CC4)C5)CC3)nc3c(F)c(-c4cc(O)cc5ccc(F)c(F)c45)ncc23)C1 [Compound 103, (S)-3-(5-(4-((7-((1-(((7-(7,8-difluoro-3-hydroxynaphthalen-1-yl)-8-fluoro-4-((R)-3-hydroxy-3-methylpiperidin-1-yl)pyrido[4,3-d]pyrimidin-2-yl)oxy)methyl)cyclopropyl)methyl)-7-azaspiro[3.5]nonan-2-yl)methyl)piperazin-1-yl)-1-oxoisoindolin-2-yl)piperidine-2,6-dione] |
| 0.02 to 0.2 | 0.001 to 0.01 | CCc1cccc2cc(O)cc(-c3ncc4c(N5CCOC[C@@](C)(O)C5)nc(OCC5(CN6CCC7(CC6)CC(CN6CCN(c8ccc9c(c8)CN([C@H]8CCC(=O)NC8=O)C9=O)CC6)C7)CC5)nc4c3F)c12 [Compound 106, (S)-3-(5-(4-((7-((1-(((7-(8-ethyl-3-hydroxynaphthalen-1-yl)-8-fluoro-4-((S)-6-hydroxy-6-methyl-1,4-oxazepan-4-yl)pyrido[4,3-d]pyrimidin-2-yl)oxy)methyl)cyclopropyl)methyl)-7-azaspiro[3.5]nonan-2-yl)methyl)piperazin-1-yl)-1-oxoisoindolin-2-yl)piperidine-2,6-dione] |
| > 0.2 | > 0.1 | CCc1cccc2cc(O)cc(-c3ncc4c(N5CCOC[C@](C)(O)C5)nc(OCC5(CN6CCC7(CC6)CC(CN6CCN(c8ccc9c(c8)CN([C@H]8CCC(=O)NC8=O)C9=O)CC6)C7)CC5)nc4c3F)c12 [Compound 107, (S)-3-(5-(4-((7-((1-(((7-(8-ethyl-3-hydroxynaphthalen-1-yl)-8-fluoro-4-((R)-6-hydroxy-6-methyl-1,4-oxazepan-4-yl)pyrido[4,3-d]pyrimidin-2-yl)oxy)methyl)cyclopropyl)methyl)-7-azaspiro[3.5]nonan-2-yl)methyl)piperazin-1-yl)-1-oxoisoindolin-2-yl)piperidine-2.6-dione] |
| > 0.2 | > 0.1 | CCc1c(F)ccc2cc(O)cc(-c3ncc4c(N5CCCC(C)(F)C5)nc(OCC5(CN6CCC7(CC6)CC(CN6CCN(c8ccc9c(c8)CN([C@H]8CCC(=O)NC8=O)C9=O)CC6)C7)CC5)nc4c3F)c12 (stereo partly drawn) [Compound 132, (3S)-3-(5-(4-((7-((1-(((7-(8-ethyl-7-fluoro-3-hydroxynaphthalen-1-yl)-8-fluoro-4-(3-fluoro-3-methylpiperidin-1-yl)pyrido[4,3-d]pyrimidin-2-yl)oxy)methyl)cyclopropyl)methyl)-7-azaspiro[3.5]nonan-2-yl)methyl)piperazin-1-yl)-1-oxoisoindolin-2-yl)piperidine-2,6-dione] |
